In PubChem BioAssay (NCI):
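Protocol summary: plate cells (96-well), add compound at 5 concentrations, incubate 48 h, interpolate endpoints linearly. GI50: concentration for 50% inhibition of growth. TGI is the concentration that stops growth completely.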

Assays:
Test in all cases: NCI anticancer screen, dose series, 48 h
ACHN renal = tested on: ACHN renal
HOP-62 NSCLC = tested on: HOP-62 NSCLC
SR leukemia = tested on: SR leukemia
TK-10 renal = tested on: TK-10 renal
U251 CNS = tested on: U251 CNS
A498 renal = tested on: A498 renal
KM12 colon = tested on: KM12 colon
OVCAR-4 ovarian = tested on: OVCAR-4 ovarian
BT-549 breast = tested on: BT-549 breast
PC-3 prostate = tested on: PC-3 prostate

## C=CCn1c(=S)sc2c(C(=O)OCC)c3c(C)cc(C)cn3c2c1=O
ACHN renal
  TGI: > 100 µM
HOP-62 NSCLC
  TGI: > 100 µM
SR leukemia
  TGI: > 100 µM
TK-10 renal
  TGI: > 100 µM
U251 CNS
  TGI: > 100 µM

## Cc1ccc(S(=O)(=O)N/N=C(\c2nc3ccc(Cl)cc3[nH]c2=O)C(O)c2ccco2)cc1 (configuration not stated)
A498 renal
  TGI: > 100 µM
ACHN renal
  TGI: > 100 µM
KM12 colon
  TGI: > 100 µM
OVCAR-4 ovarian
  TGI: > 100 µM
TK-10 renal
  TGI: > 100 µM

## O=c1cc(-c2ccccn2)[nH]c2cccc(F)c12
ACHN renal
  TGI: > 100 µM
HOP-62 NSCLC
  TGI: > 100 µM
KM12 colon
  TGI: > 100 µM
OVCAR-4 ovarian
  TGI: > 100 µM
SR leukemia
  TGI: > 100 µM
TK-10 renal
  TGI: > 100 µM

## c1ccc(-c2nn3c(c2-c2ccnc4cc(OCCN5CCOCC5)ccc24)CCC3)nc1
A498 renal
  GI50: > 100 µM
  TGI: > 100 µM
ACHN renal
  GI50: 36.3 µM
  TGI: > 100 µM
BT-549 breast
  GI50: > 79.9 µM
  TGI: > 100 µM
HOP-62 NSCLC
  GI50: 99.4 µM
  TGI: > 100 µM
KM12 colon
  GI50: 59.4 µM
  TGI: > 100 µM
OVCAR-4 ovarian
  GI50: > 100 µM
  TGI: > 100 µM
PC-3 prostate
  GI50: 98.8 µM
  TGI: > 100 µM
TK-10 renal
  GI50: > 100 µM
  TGI: > 100 µM
U251 CNS
  GI50: 97.3 µM
  TGI: > 100 µM

## CO/N=C(\COc1ccc2c(=O)c3ccccc3oc2c1)c1ccccc1
A498 renal
  GI50: 20.3 µM
  TGI: 47.7 µM
ACHN renal
  GI50: 24 µM
  TGI: 52.7 µM
BT-549 breast
  GI50: 26.8 µM
  TGI: 74.5 µM
HOP-62 NSCLC
  GI50: 26.8 µM
  TGI: 78.3 µM
KM12 colon
  GI50: 41.4 µM
  TGI: > 100 µM
OVCAR-4 ovarian
  GI50: 84.3 µM
  TGI: > 100 µM
PC-3 prostate
  GI50: 35 µM
  TGI: > 100 µM
TK-10 renal
  GI50: 18.6 µM
  TGI: 38.1 µM
U251 CNS
  GI50: 26.6 µM
  TGI: 79.2 µM

## O=[N+]([O-])/C=C/c1c(Cl)cccc1Cl
A498 renal
  TGI: 30 µM
ACHN renal
  TGI: 7.49 µM
BT-549 breast
  TGI: 4.96 µM
HOP-62 NSCLC
  TGI: 13 µM
KM12 colon
  TGI: 5.28 µM
OVCAR-4 ovarian
  TGI: 11.4 µM
PC-3 prostate
  TGI: 5.58 µM
TK-10 renal
  TGI: 8.25 µM
U251 CNS
  TGI: 9.27 µM

## OCCCCC#Cc1ccccc1C#Cc1ccc(O)cc1
A498 renal
  GI50: 20.7 µM
  TGI: 38.5 µM
ACHN renal
  GI50: 16.6 µM
  TGI: 31.2 µM
BT-549 breast
  GI50: 14.1 µM
  TGI: 28.8 µM
HOP-62 NSCLC
  GI50: 21.9 µM
  TGI: 38.1 µM
KM12 colon
  GI50: 14.5 µM
  TGI: 30.9 µM
OVCAR-4 ovarian
  GI50: 15.8 µM
  TGI: 31.9 µM
PC-3 prostate
  GI50: 17.2 µM
  TGI: 35.2 µM
TK-10 renal
  GI50: 17.5 µM
  TGI: 31.7 µM
U251 CNS
  GI50: 15 µM
  TGI: 29.3 µM

## COc1ccc(-c2c(C)c(C(=O)O)nc(-c3ccc4c(O)c(OC)c5c(c4n3)=NC(C)(C)N=5)c2N)c(O)c1OC
ACHN renal
  TGI: 27.7 µM
BT-549 breast
  TGI: 82.7 µM
HOP-62 NSCLC
  TGI: 44 µM
KM12 colon
  TGI: 33.1 µM
OVCAR-4 ovarian
  TGI: > 100 µM
PC-3 prostate
  TGI: > 100 µM
SR leukemia
  TGI: 1.94 µM
TK-10 renal
  TGI: 72.7 µM
U251 CNS
  TGI: 25.8 µM

## CCC(=O)N1C/C(=C/c2ccc(Cl)cc2)C(=O)/C(=C/c2ccc(Cl)cc2)C1
A498 renal
  GI50: 1.5 µM
  TGI: 3.04 µM
ACHN renal
  GI50: 0.745 µM
  TGI: 1.98 µM
BT-549 breast
  GI50: 0.462 µM
  TGI: 1.52 µM
HOP-62 NSCLC
  GI50: 0.499 µM
  TGI: 1.53 µM
KM12 colon
  GI50: 0.25 µM
  TGI: 0.665 µM
OVCAR-4 ovarian
  GI50: 0.836 µM
  TGI: 2.86 µM
PC-3 prostate
  GI50: 0.464 µM
  TGI: 2.4 µM
TK-10 renal
  GI50: 1.76 µM
  TGI: 3.52 µM
U251 CNS
  GI50: 0.28 µM
  TGI: 0.897 µM

## CCCn1c(SCCSc2c3ccccc3c(-c3nc(F)nc(F)n3)n2CCC)c2ccccc2c1-c1nc(F)nc(F)n1
ACHN renal
  TGI: > 100 µM
HOP-62 NSCLC
  TGI: > 100 µM
KM12 colon
  TGI: > 100 µM
OVCAR-4 ovarian
  TGI: > 100 µM
SR leukemia
  TGI: 60.4 µM
TK-10 renal
  TGI: > 100 µM
U251 CNS
  TGI: > 100 µM

## Cc1c(C(=O)C/C(=N/NC(=O)c2ccccc2)C(=O)Nc2ccc(Cl)cc2)[n+](=O)c2ccccc2n1[O-]
A498 renal
  TGI: > 100 µM
ACHN renal
  TGI: > 100 µM
HOP-62 NSCLC
  TGI: > 100 µM
KM12 colon
  TGI: > 100 µM
OVCAR-4 ovarian
  TGI: > 100 µM
SR leukemia
  TGI: > 100 µM
TK-10 renal
  TGI: > 100 µM
U251 CNS
  TGI: > 100 µM

## O=C(/C=C(\O)C(=O)O)/C=C(\O)c1ccccc1
A498 renal
  TGI: > 100 µM
ACHN renal
  GI50: > 1 µM
  TGI: > 100 µM
HOP-62 NSCLC
  GI50: > 1 µM
  TGI: > 76.2 µM
KM12 colon
  TGI: > 100 µM
OVCAR-4 ovarian
  GI50: > 1 µM
  TGI: > 100 µM
SR leukemia
  GI50: > 1 µM
  TGI: > 100 µM
TK-10 renal
  GI50: > 1 µM
  TGI: > 100 µM
U251 CNS
  GI50: > 1 µM
  TGI: > 100 µM

## COc1ccc2c(c1)/C(=C\c1ccncc1)C(=O)N2
ACHN renal
  GI50: 4.41 µM
  TGI: 15.9 µM
BT-549 breast
  GI50: 12.5 µM
  TGI: 32.4 µM
HOP-62 NSCLC
  GI50: 21.8 µM
  TGI: 41 µM
KM12 colon
  GI50: 4.83 µM
  TGI: 24 µM
PC-3 prostate
  GI50: 25 µM
  TGI: > 100 µM
TK-10 renal
  GI50: 15.1 µM
  TGI: 30.5 µM
U251 CNS
  GI50: 4.32 µM
  TGI: 23.1 µM

## Cc1cc2c(c(C(N)=O)c1C)-c1cccc(F)c1C2=O
A498 renal
  TGI: > 100 µM
ACHN renal
  TGI: > 100 µM
HOP-62 NSCLC
  TGI: > 100 µM
KM12 colon
  TGI: > 100 µM
OVCAR-4 ovarian
  TGI: > 100 µM
TK-10 renal
  TGI: > 100 µM
U251 CNS
  TGI: > 100 µM

## N#C/C(=C1\SCC(=O)N1c1ccccc1)c1nc2ccccc2[nH]1
A498 renal
  TGI: > 100 µM
ACHN renal
  TGI: > 100 µM
HOP-62 NSCLC
  TGI: > 100 µM
OVCAR-4 ovarian
  TGI: > 100 µM
TK-10 renal
  TGI: > 100 µM
U251 CNS
  TGI: > 100 µM

## CCOC(=O)NC(=O)c1cn(CCN2CCN(C(=O)CNC(=O)CNC(=O)Cn3cc(C(=O)NC(=O)OCC)c(=O)[nH]c3=O)CC2)c(=O)[nH]c1=O
A498 renal
  TGI: > 100 µM
ACHN renal
  TGI: > 100 µM
HOP-62 NSCLC
  TGI: > 100 µM
KM12 colon
  TGI: > 100 µM
SR leukemia
  TGI: > 100 µM
TK-10 renal
  TGI: > 100 µM
U251 CNS
  TGI: > 100 µM

## COC(=O)CCC(NC(=S)N/N=C(\C)c1ccc[nH]1)C(=O)OC (configuration not stated)
A498 renal
  TGI: > 100 µM
ACHN renal
  TGI: > 100 µM
HOP-62 NSCLC
  TGI: > 100 µM
KM12 colon
  TGI: > 100 µM
OVCAR-4 ovarian
  TGI: > 100 µM
TK-10 renal
  TGI: > 100 µM
U251 CNS
  TGI: > 100 µM

## [N-]=[N+]=NC(c1cn(C2CC(O)C(CO)O2)c(=O)[nH]c1=O)C(Cl)Br (configuration not stated)
ACHN renal
  TGI: > 100 µM
KM12 colon
  TGI: > 100 µM
SR leukemia
  TGI: > 100 µM
TK-10 renal
  TGI: > 100 µM
U251 CNS
  TGI: > 100 µM

## C=CC(=O)N1C/C(=C\c2ccc(Cl)c(Cl)c2)C(=O)/C(=C/c2ccc(Cl)c(Cl)c2)C1
A498 renal
  TGI: 1.89 µM
ACHN renal
  TGI: 0.343 µM
HOP-62 NSCLC
  TGI: 0.607 µM
KM12 colon
  TGI: 0.642 µM
OVCAR-4 ovarian
  TGI: 0.122 µM
SR leukemia
  TGI: 0.0648 µM
TK-10 renal
  TGI: 2.57 µM
U251 CNS
  TGI: 0.0724 µM

## Oc1c(C(Nc2ccccc2Br)c2ccccc2)ccc2cccnc12 (configuration not stated)
A498 renal
  GI50: 2.04 µM
  TGI: 25.6 µM
ACHN renal
  GI50: 2.04 µM
  TGI: > 100 µM
HOP-62 NSCLC
  GI50: 2.28 µM
  TGI: 19.7 µM
KM12 colon
  GI50: 2.47 µM
  TGI: > 100 µM
OVCAR-4 ovarian
  GI50: 1.3 µM
  TGI: 55 µM
PC-3 prostate
  GI50: 3.92 µM
  TGI: > 100 µM
SR leukemia
  GI50: 0.715 µM
  TGI: > 100 µM
TK-10 renal
  GI50: 3.34 µM
  TGI: 46.3 µM
U251 CNS
  GI50: 0.674 µM
  TGI: 13.4 µM
